Data reported in patent publication US20260109721A1, “IONIZABLE CATIONIC LIPIDS INCORPORATING SILICON: SYNTHESIS AND LNP FORMULATION” (priority 2023, published 2026).

Experiment: Encapsulation efficiency of loaded LNPs, RiboGreen RNA assay (Method A)
Format: physicochemical
Conditions: encapsulation efficiency of mRNA-loaded LNP, Method A, RiboGreen
Method: The synthesized lipids were tested in term of in vitro transfection efficacy and toxicity on HeLa cells. In order to perform the mentioned biological tests, appropriate LNPs had to be formulated from the synthesized lipids. The formulation technique was different in Method A and B. The particle size, polydispersity index (PDI) and zeta potential of resulting LNPs were determined by means of Dynamic Light Scattering technique (DLS). Prior to biological testing the encapsulation efficiency (EE) of the loaded LNPs was determined by using RiboGreen RNA assay. In case of Method A Luc mRNA while in case of Method B GFP mRNA was transfected into the cells. In parallel with the transfection experiments, toxicity of the investigated LNPs was determined, in case of Method A resazurin assay while in case of Method B MTT assay was used. Additionally, the toxicity of the lipids was investigated on HepG2 cells and IC50 values were determined.
• 1. Preparation of sample stock solutions: In the top row of the 96-well plate (Row A in the plate), add 297 μL of TE buffer pH 7.4 (see Table 1) to a single well for each sample plus a single well for a PBS blank using a multichannel pipette.
• 2. Add 3 μL of sample (at 0.5 mg/ml) to these wells for a final volume of 300 μL. Add 3 μL of PBS to the blank well. Pipette to mix. This is your stock solution for each sample. The final RNA concentration of these stock solutions should be approximately 4-7 μg/mL. • 3. mRNA-LNP sample setup: • a. Add 50 μL of TE buffer pH 7.5 to the two wells directly below each sample (Rows B and C in the plate). • b. Add 50 μL of sample stock solution from Row A into the wells in Rows B and C (this assay is run in duplicate. All liquid handling should be done using a multichannel pipette). • c. Add 50 μL of Triton buffer to the wells in Rows D and E (in the plate) below each sample. • d. Add 50 μL of sample stock solution from Row A into the wells in Rows D and E. • 4. RiboGreen RNA standard curve setup: Dilute the RNA standard to produce an RNA stock at a final concentration of 20 μg/mL in TE buffer pH 7.4. The final volume should be 150 μL. Set up a standard curve (in duplicate) as using the RNA stock (20 μg/mL siRNA), TE buffer pH 7.5, and Triton X-100 buffer according the Table 2 and Table 3 below.
• 5. Once samples and standard curve are plated, incubate the plate at 37° C. for 10 min to lyse mRNA-LNP in the presence of Triton X-100 buffer. • 6. Meanwhile, prepare RiboGreen Solution: Sum the total number of sample wells and standard curve wells. Add three to this number, and multiply the total by 100. This is the total volume, in μL, of RiboGreen Solution needed for this assay. In a 15 mL RNAse-free Falcon tube, dilute the RiboGreen Reagent 1:100 into TE buffer pH 7.5 to the total volume calculated. • 7. Addition of RiboGreen Solution and sample readings: Remove a 96-well plate from 37° C. incubator; let it cool to room temperature as RiboGreen binding is somewhat temperature dependent. Add 100 μL of RiboGreen Solution to each well. Pop any air bubbles with a needle. Read using fluorescent plate reader (excitation=480, emission=525). • 8. Sample analysis: Use the data generated by the RiboGreen standard curve to calculate the concentration of mRNA. Transfection Efficiency with Luciferase-mRNA (Method A)

Compound	EE (%)
CCCCC/C=C\C/C=C\CCCCCCCCOC(CC[C@@H](C)C1CCC2C3CCC4C[C@H](OC)CC[C@]4(C)C3CC[C@@]21C)O[Si](C)(C)OCCCCCCN(CCO)CCO (stereo partly drawn) [Example 52, (23Z,26Z)-3-(2-hydroxyethyl)-13-((3R)-3-((3R,10S,13R)-3-methoxy-10,13-dimethylhexadecahydro-1H-cyclopenta[a]phenanthren-17-yl)butyl)-11,11-dimethyl-10,12,14-trioxa-3-aza-11-siladotriaconta-23,26-dien-1-ol]	86%
CCCCCCCC/C=C\CCCCCCCC(OCCCCCCCCCCCCCCCC)O[Si](C)(C)OCCCCCCN(CCO)CCO (stereo not shown) [Example 42, (Z)-13-(heptadec-8-en-1-yl)-3-(2-hydroxyethyl)-11,11-dimethyl-10,12,14-trioxa-3-aza-11-silatriacontan-1-ol]	87%
CCCCCCCC/C=C\CCCCCCCCOC(=O)C(C)(C)CC(OCCCCCCCC/C=C\CCCCCCCC)O[Si](C)(C)OCCCCCCN(C)CC(O)CO (stereo not shown) [Example 92, (Z)-octadec-9-en-1-yl 1,2-dihydroxy-4,12,12,16,16-pentamethyl-14-(((Z)-octadec-9-en-1-yl)oxy)-11,13-dioxa-4-aza-12-silaheptadecan-17-oate]	89%
CCCCCCCC/C=C\CCCCCCCC(OCCCCCCCCCCCCCCC(C)C)O[Si](C)(C)OCCCCCCN(CCO)CCO (stereo not shown) [Example 76, (Z)-13-(heptadec-8-en-1-yl)-3-(2-hydroxyethyl)-11,11,29-trimethyl-10,12,14-trioxa-3-aza-11-silatriacontan-1-ol]	80%
CCCCCCCC/C=C\CCCCCCCCOC(=O)C(C)(C)CC(OCCCCCCCC/C=C\CCCCCCCC)O[Si](C)(C)OCCCCCCN(CCO)CCO (stereo not shown) [Example 84, (Z)-octadec-9-en-1-yl 1-hydroxy-3-(2-hydroxyethyl)-11,11,15,15-tetramethyl-13-(((Z)-octadec-9-en-1-yl)oxy)-10,12-dioxa-3-aza-11-silahexadecan-16-oate]	90%
CCCCCCCC/C=C\CCCCCCCCOC(=O)C(C)(C)CC(OCCCCCCCC/C=C\CCCCCCCC)O[Si](C)(C)OCCCCCCN(C)CCCCO (stereo not shown) [Example 91, (Z)-octadec-9-en-1-yl 18-hydroxy-2,2,6,6,14-pentamethyl-4-(((Z)-octadec-9-en-1-yl)oxy)-5,7-dioxa-14-aza-6-silaoctadecanoate]	88%
CCCCC/C=C\C/C=C\CCCCCCCCOC(CCCCCCC/C=C\C/C=C\CCCCC)O[Si](C)(C)O[Si](C)(C)CCCCCCN(CCO)CCO (stereo not shown) [Example 82, (24Z,27Z)-14-((8Z,11Z)-heptadeca-8,11-dien-1-yl)-3-(2-hydroxyethyl)-10,10,12,12-tetramethyl-11,13,15-trioxa-3-aza-10,12-disilatritriaconta-24,27-dien-1-ol]	80%
CCCCCCCC/C=C\CCCCCCCCOC(CCCCCCC/C=C\CCCCCCCC)O[Si](C)(C)OCCCCCCN(CCO)CCO (stereo not shown) [Example 47, (Z)-13-((Z)-heptadec-8-en-1-yl)-3-(2-hydroxyethyl)-11,11-dimethyl-10,12,14-trioxa-3-aza-11-siladotriacont-23-en-1-ol]	88%
CCCCCCCC/C=C\CCCCCCCCOC(CCCCCCC/C=C\CCCCCCCC)O[Si](C)(C)OCCCCCCN(C)[C@H](CO)Cc1ccccc1 (stereo partly drawn) [Example 78, (2S,Z)-2-benzyl-13-((Z)-heptadec-8-en-1-yl)-3,11,11-trimethyl-10,12,14-trioxa-3-aza-11-siladotriacont-23-en-1-ol]	87%
CCCCCCCC/C=C\CCCCCCCC(OCCCCCCCCCCCC1CCCCC1)O[Si](C)(C)OCCCCCCN(CCO)CCO (stereo not shown) [Example 74, (Z)-25-cyclohexyl-13-(heptadec-8-en-1-yl)-3-(2-hydroxyethyl)-11,11-dimethyl-10,12,14-trioxa-3-aza-11-silapentacosan-1-ol]	87%
CCCCC/C=C\C/C=C\CCCCCCCCOC(CCCCCCC/C=C\C/C=C\CCCCC)O[Si](C)(C)OCCCCCCN(CCO)CCN(CCO)CCCCCCO[Si](C)(C)OC(CCCCCCC/C=C\C/C=C\CCCCC)OCCCCCCCC/C=C\C/C=C\CCCCC (stereo not shown) [Example 71, (26Z,29Z)-16-((8Z,11Z)-heptadeca-8,11-dien-1-yl)-3-((20Z,23Z)-10-((8Z,11Z)-heptadeca-8,11-dien-1-yl)-8,8-dimethyl-7,9,11-trioxa-8-silanonacosa-20,23-dien-1-yl)-6-(2-hydroxyethyl)-14,14-dimethyl-13,15,17-trioxa-3,6-diaza-14-silapentatriaconta-26,29-dien-1-ol]	84%
CCCCC/C=C\C/C=C\CCCCCCCCOC(CCCCCN(CCO)CCO)O[Si](C)(C)OCCCCCCCC/C=C\C/C=C\CCCCC (stereo not shown) [Example 39, (21Z,24Z)-3-(2-hydroxyethyl)-11,11-dimethyl-9-(((9Z,12Z)-octadeca-9,12-dien-1-yl)oxy)-10,12-dioxa-3-aza-11-silatriaconta-21,24-dien-1-ol]	87%
CCCCCCCC/C=C\CCCCCCCCOC(=O)C(C)(C)CC(OCCCCCCCC/C=C\CCCCCCCC)O[Si](C)(C)OCCCCCCN1CCCC1CO (stereo not shown) [Example 90, (Z)-octadec-9-en-1-yl 4-((((6-(2-(hydroxymethyl)pyrrolidin-1-yl)hexyl)oxy)dimethylsilyl)oxy)-2,2-dimethyl-4-(((Z)-octadec-9-en-1-yl)oxy)butanoate]	87%
CCCCC/C=C\C/C=C\CCCCCCCCO[Si](C)(C)OC(CCCCCCC/C=C\C/C=C\CCCCC)OCCCCCCN(CCO)CCO (stereo not shown) [Example 40, (23Z,26Z)-11-((8Z,11Z)-heptadeca-8,11-dien-1-yl)-3-(2-hydroxyethyl)-13,13-dimethyl-10,12,14-trioxa-3-aza-13-siladotriaconta-23,26-dien-1-ol]	87%
CCCCCCCC/C=C\CCCCCCCCOC(=O)C(C)(C)CC(OCCCCCCCC/C=C\CCCCCCCC)O[Si](C)(C)OCCCCCCN1CCCCC1CO (stereo not shown) [Example 89, (Z)-octadec-9-en-1-yl 4-((((6-(2-(hydroxymethyl)piperidin-1-yl)hexyl)oxy)dimethylsilyl)oxy)-2,2-dimethyl-4-(((Z)-octadec-9-en-1-yl)oxy)butanoate]	89%
CCCCC/C=C\C/C=C\CCCCCCCCOC(CCCCCCC/C=C\C/C=C\CCCCC)O[Si](C)(C)OCCCCCCN(C)Cc1cn(C2[C@H](O)O[C@H](CO)[C@@H](O)[C@@H]2O)nn1 (stereo partly drawn) [Example 68, (4R,5S,6R)-3-(4-((22Z,25Z)-12-((8Z,11Z)-heptadeca-8,11-dien-1-yl)-2,10,10-trimethyl-9,11,13-trioxa-2-aza-10-silahentriaconta-22,25-dien-1-yl)-1H-1,2,3-triazol-1-yl)-6-(hydroxymethyl)tetrahydro-2H-pyran-2,4,5-triol]	88%
CCCCCCCC/C=C\CCCCCCCC(OCC(CCCCCCCC)SCCCCCCCCCC)O[Si](C)(C)OCCCCCCN(CCO)CCO (stereo not shown) [Example 73, (Z)-13-(heptadec-8-en-1-yl)-3-(2-hydroxyethyl)-11,11-dimethyl-16-octyl-10,12,14-trioxa-17-thia-3-aza-11-silaheptacosan-1-ol]	87%
CCCCCCCC/C=C\CCCCCCCC(OCCC(C)CCCC(C)CCCC(C)CCCC(C)C)O[Si](C)(C)OCCCCCCN(CCO)CCO (stereo not shown) [Example 75, (Z)-13-(heptadec-8-en-1-yl)-3-(2-hydroxyethyl)-11,11,17,21,25,29-hexamethyl-10,12,14-trioxa-3-aza-11-silatriacontan-1-ol]	89%
CCCCCCCC/C=C\CCCCCCCCOC(=O)C(C)(C)CC(OCCCCCCCC/C=C\CCCCCCCC)O[Si](C)(C)OCCCCCCN(CCCO)CCCO (stereo not shown) [Example 88, (Z)-octadec-9-en-1-yl 1-hydroxy-4-(3-hydroxypropyl)-12,12,16,16-tetramethyl-14-(((Z)-octadec-9-en-1-yl)oxy)-11,13-dioxa-4-aza-12-silaheptadecan-17-oate]	87%
